# Results as given in patent US8435576B2, “Use of cocoa polyphenols for treating a prostate hyperplasia, a specific cocoa extract and applications” (Barry Callebaut AG, priority 2005, dated 2013).
# Marks after values point to notes of the source that are not given here.
# Experiments:
# [1] = test system: healthy human prostate epithelial cells (RWEP-1); experiment: Cell proliferation test, neutral red release method, media M1-M3; type: cell-based; details: RWEP-1, media M1, M2 or M3, 24 hours
# Description: (§1) • Healthy human prostate epithelial cells (RWEP-1, ATCC No. CRL-11609) • Human prostate carcinoma (22Rv1 ATCC No. CRL-2505) Culture: • 37° C., 5% CO2, 95% humidity
# (§2) • Keratinocyte-serum free medium (KSFM) (Invitrogen, 17005-042) • Epidermal Growth Factor, 5 ng/ml (Invitrogen, 10450-013) • Bovine pituitary extract, 0.05 mg/ml (Invitrogen, 13028-014) • Penicillin 50 IU/ml-streptomycin 50 μg/ml 10 (v/v, Invitrogen 15070-063) Medium M2=Medium recommended for tumor cells (22Rv1): • RPMI 1640 medium (Invitrogen, 31870-025) • Decomplemented fetal calf serum, 10% (v/v Invitrogen 10270-098) • L-Glutamine, 1% (v/v Invitrogen 25030-024) • Penicillin 50 IU/ml-streptomycin 50 μg/ml 1 (v/v, • Invitrogen 15070-063) Medium M3=Mixed medium: • Whole keratinocyte-serum free medium, 50% (v/v) • Whole RPMI 1640 medium, 50% (v/v) […]
# (§3) After 24 hours of growth, the healthy and tumoral cell lines were incubated in the presence of β-sitosterol (reference product) at 8 concentrations (see paragraph b) above) or of CPE at 8 concentrations (see paragraph b) above). […] The amount of stain incorporated into the cells is measured by spectro-photometric reading at 540 nm and is directly pro-portional to the number of live cells. The results were expressed as a percentage of inhibition relative to the untreated control.
# [2] = test system: human prostate carcinoma (22Rv1); experiment: as above; type: cell-based; details: 22Rv1, media M1, M2 or M3, 24 hours
# Description: as §1, §2, §3
# [3] = test system: RWEP-1 cells; experiment: Cell growth and viability (neutral red / sulforhodamine B) and morphology; type: cell-based, human
# Description: Each product (1 to 5) was applied for 1 to 72 hours, at various concentrations. The number of cells was compared with a control, namely cells cultured in the absence of the test compound.
# The RPMI-1640 medium, the fetal calf serum and the L-glutamine were supplied by Gibco BRL (Cergy Pontoise, France). The cell cultures were replaced every 5 days to ensure exponential growth. The normal human prostate cells RWEP-1 were supplied by the American Type Culture Collection (ATCC, Rockville, Md.). The cells were maintained in the form of a monolayer culture according to the usual techniques, in […] flasks, at 37° C., in an atmosphere containing 5% CO2 and at 95% humidity, in a medium free of serum and of keratinocytes, supplemented with 2.5 μg of recombinant human EGF and 25 mg of calf pituitary extract. The medium was supplied by Gibco BRL (Cergy Pontoise, France).
# Five products were tested for this study and were stored protected from light, at +4° C. The β-sitosterol (product 1), obtained from Sigma Chemicals, was first dissolved in absolute ethanol, up to a final concentration of 24.1 mM. Product 2, supplied by Barry Callebaut, France, is a defatted cocoa extract containing 35.5% polyphenols and 0.081% β-sitosterol. Product 3 was reconstituted from products 1 and 2 and contained 35.5% polyphenols and 0.72% β-sitosterol. Products 4 and 5 were manufactured by Barry Callebaut, France. The composition of product 4 is unknown, and contains no β-sitosterol. Product 5 contains 35.27% polyphenols and 0.72% β-sitosterol. Products 2, 3, 4 and 5 were first dissolved in whole medium. As regards products 2, 4 and 5, the total polyphenols of the cocoa extracts originate from different countries.
# Just before use, the final concentrations of products (table 1) used are prepared for the various experiments by means of stock solutions, by diluting the stock solution in whole medium. 64.2 μM of β-sitosterol is the maximum dose used in this solubility range and in the physiological range (4 to 70 μM). The absolute ethanol is at a constant concentration of 0.26% in the solvent-based control, in the negative control and in the 8 test concentrations. The ratios of the β-sitosterol and of the polyphenols for products 2, 3 and 5 are as follows: • Product 2:2:1000 • Product 3:2:100 • Product 5:2:100
# The cells were inoculated on 96-well plates at an initial density of 15 000 cells/well for DU145, at an initial density of 30 000 cells/well for 22Rv1 and at an initial density of 25 000 cells/well for RWEP-1, with 200 μL of medium per well. The cell density was optimized as a function of the time required to double the population of cells, in order to obtain a significant measurement of the Optical Density (OD) and to be able to compare the various cells lines. After 24 hours, in order to ensure uniform fixing of the cells from the start of the experiments, the products were added to the cell cultures at various concentrations and at various times. After incubation with the products, the growth and viability of the cells was measured using neutral red (NR) and sulforhodamine B (SRB) combined (In Cytotox, Vandoeuvre, France). The absorption of the vital stain NR was used by the lysosomes/endosomes and by the vacuoles of the live cells as a quantitative indication of the number and viability of the cells after treatment with a chemical test. The anionic stain SRB made it possible to quantify the viable cells via measurement of the protein content of the cells.
# The cytotoxicity was evaluated 1, 3, 6, 24, 48 and 72 hours after incubating the 22Rv1, RWEP-1 and DU145 cells with the products. The cells were washed with 200 μl of washing solution in order to remove the culture medium supplemented with the products. 200 μL of neutral red base medium was added and incubated with the cells at 37° C. for 3 hours. The neutral red base medium was then removed and the cells were washed twice with phosphate-buffered physiological saline (PBS). […]
smiles,measurement,setting,value
CC[C@H](CC[C@@H](C)[C@H]1CC[C@H]2[C@@H]3CC=C4C[C@@H](O)CC[C@]4(C)[C@H]3CC[C@]12C)C(C)C [β-sitosterol],Inhibition of proliferation,[1],weak inhibition of proliferation
same,Inhibition of proliferation,[2],weak inhibition of proliferation
same,max. inhibition,"[3]; 24 h, RWEP1, NR",15%^b
same,max. inhibition,"[3]; 24 h, RWEP1, SRB",9%
same,max. inhibition,"[3]; 48 h, RWEP1, NR",29%
same,max. inhibition,"[3]; 48 h, RWEP1, SRB",48%
same,max. inhibition,"[3]; 72 h, RWEP1, NR",11%
same,max. inhibition,"[3]; 72 h, RWEP1, SRB",26%
same,IC50,"[3]; RWEP-1, between 1 and 72 hours of treatment",never reached
